The target of assay [1] is T1, Dual specificity mitogen-activated protein kinase kinase 7 (Homo sapiens) (UniProt O14733).
T1 sequence (whole entry): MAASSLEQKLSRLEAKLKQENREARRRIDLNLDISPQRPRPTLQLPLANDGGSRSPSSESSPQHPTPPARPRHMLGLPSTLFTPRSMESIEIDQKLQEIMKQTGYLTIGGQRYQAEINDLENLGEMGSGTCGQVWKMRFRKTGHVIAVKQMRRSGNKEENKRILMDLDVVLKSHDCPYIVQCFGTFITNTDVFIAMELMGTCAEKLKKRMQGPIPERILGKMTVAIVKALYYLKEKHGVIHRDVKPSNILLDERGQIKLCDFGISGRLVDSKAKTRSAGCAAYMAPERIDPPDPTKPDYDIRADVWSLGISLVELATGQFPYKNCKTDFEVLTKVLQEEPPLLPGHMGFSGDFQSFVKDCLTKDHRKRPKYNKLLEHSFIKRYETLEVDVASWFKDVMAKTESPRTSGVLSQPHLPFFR
In words: Inhibition of human MKK7beta assessed as residual activity at 1 uM relative to control.

The target in assay [2] is Serine/threonine-protein kinase MARK2 (Homo sapiens) (UniProt Q7KZI7). The assay is described as follows: Inhibition of human PAR-1Balpha assessed as residual activity at 1 uM relative to control.
Sequence of Serine/threonine-protein kinase MARK2 (Homo sapiens) (Q7KZI7 whole entry): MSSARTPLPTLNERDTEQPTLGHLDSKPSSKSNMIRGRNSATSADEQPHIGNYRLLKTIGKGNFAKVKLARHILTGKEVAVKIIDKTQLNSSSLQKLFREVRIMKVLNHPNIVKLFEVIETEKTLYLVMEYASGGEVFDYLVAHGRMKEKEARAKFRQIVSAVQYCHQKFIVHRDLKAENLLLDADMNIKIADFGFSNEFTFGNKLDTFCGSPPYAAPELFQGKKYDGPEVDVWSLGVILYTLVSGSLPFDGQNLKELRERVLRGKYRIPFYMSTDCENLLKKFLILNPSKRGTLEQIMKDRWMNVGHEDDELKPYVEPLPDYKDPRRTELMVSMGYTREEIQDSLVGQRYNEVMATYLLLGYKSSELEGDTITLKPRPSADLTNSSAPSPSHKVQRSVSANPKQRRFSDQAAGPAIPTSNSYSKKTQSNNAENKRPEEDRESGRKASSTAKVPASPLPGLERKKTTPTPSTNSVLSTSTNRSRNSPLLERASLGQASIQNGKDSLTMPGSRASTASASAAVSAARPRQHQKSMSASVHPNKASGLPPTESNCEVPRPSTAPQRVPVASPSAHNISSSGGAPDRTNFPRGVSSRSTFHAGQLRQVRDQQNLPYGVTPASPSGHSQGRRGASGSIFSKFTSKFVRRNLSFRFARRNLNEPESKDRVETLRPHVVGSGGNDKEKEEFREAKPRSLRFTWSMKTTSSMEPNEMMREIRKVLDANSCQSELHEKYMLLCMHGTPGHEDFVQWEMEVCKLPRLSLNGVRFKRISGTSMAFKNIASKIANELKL
The target of assay [3] is Casein kinase II subunit alpha' (Homo sapiens) (UniProt P19784). The assay is described as follows: Inhibition of human CK2-alpha2 assessed as residual activity at 1 uM relative to control.
Sequence of Casein kinase II subunit alpha' (Homo sapiens) (P19784 whole entry, looked up): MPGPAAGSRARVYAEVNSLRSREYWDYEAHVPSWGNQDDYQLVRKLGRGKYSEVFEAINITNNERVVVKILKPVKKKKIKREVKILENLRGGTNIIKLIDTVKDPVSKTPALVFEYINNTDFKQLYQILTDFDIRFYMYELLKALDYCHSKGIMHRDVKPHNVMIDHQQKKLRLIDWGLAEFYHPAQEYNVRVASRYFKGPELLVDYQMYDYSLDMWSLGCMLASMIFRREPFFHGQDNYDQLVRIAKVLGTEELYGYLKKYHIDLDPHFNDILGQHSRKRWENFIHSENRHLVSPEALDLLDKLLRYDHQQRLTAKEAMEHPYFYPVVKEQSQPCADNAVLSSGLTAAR
In assay [4] the target is Protein kinase C alpha type (Homo sapiens) (UniProt P17252). In words: Inhibition of human PKCalpha assessed as residual activity at 1 uM relative to control.
Assay [5] has as its target Serine/threonine-protein kinase pim-2 (Homo sapiens) (UniProt Q9P1W9). The assay is described as follows: Inhibition of human PIM-2 assessed as residual activity at 1 uM relative to control.
The target in assay [6] is T2, Serine/threonine-protein kinase 17A (Homo sapiens) (UniProt Q9UEE5).
T2 sequence (whole entry): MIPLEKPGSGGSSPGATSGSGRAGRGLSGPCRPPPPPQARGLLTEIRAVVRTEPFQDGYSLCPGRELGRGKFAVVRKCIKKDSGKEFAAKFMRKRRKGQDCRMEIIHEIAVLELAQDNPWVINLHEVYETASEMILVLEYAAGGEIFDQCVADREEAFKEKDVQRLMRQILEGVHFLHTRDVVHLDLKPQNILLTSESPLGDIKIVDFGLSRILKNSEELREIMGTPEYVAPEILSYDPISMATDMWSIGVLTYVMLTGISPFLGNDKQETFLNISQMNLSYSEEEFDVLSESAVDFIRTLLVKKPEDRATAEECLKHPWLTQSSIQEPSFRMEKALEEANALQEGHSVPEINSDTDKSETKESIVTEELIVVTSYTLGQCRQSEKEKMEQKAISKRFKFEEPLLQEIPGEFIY
The assay is described as follows: Inhibition of human DRAK1 assessed as residual activity at 1 uM relative to control.

In assay [7] the target is T3, Discoidin domain-containing receptor 2 (Homo sapiens) (UniProt Q16832).
T3 sequence (whole entry): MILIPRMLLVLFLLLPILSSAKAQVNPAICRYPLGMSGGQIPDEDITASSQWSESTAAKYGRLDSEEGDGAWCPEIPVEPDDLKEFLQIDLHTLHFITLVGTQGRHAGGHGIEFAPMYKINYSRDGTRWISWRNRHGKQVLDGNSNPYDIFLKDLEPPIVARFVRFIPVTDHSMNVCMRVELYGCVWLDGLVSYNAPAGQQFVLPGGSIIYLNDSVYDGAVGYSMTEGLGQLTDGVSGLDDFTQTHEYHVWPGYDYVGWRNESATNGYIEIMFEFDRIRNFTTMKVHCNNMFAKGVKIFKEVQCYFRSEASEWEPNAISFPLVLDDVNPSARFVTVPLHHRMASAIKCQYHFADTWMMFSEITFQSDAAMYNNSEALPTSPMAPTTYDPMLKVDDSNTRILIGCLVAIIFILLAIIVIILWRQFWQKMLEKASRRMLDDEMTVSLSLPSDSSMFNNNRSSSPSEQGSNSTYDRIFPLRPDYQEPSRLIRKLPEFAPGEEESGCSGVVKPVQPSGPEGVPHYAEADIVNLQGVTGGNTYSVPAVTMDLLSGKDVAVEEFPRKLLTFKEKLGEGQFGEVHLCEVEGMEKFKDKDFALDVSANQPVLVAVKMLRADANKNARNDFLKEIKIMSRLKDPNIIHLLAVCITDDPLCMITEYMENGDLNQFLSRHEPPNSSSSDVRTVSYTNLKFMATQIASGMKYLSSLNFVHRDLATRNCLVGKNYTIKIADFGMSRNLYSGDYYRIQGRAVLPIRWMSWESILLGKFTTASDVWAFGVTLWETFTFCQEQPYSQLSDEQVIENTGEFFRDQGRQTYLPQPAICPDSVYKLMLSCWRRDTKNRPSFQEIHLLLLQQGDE
The assay is described as follows: Inhibition of human DDR2 assessed as residual activity at 1 uM relative to control.

In assay [8] the target is Ribosomal protein S6 kinase alpha-1 (Homo sapiens) (UniProt Q15418). In words: Inhibition of human RSK1 assessed as residual activity at 1 uM relative to control.
Sequence of Ribosomal protein S6 kinase alpha-1 (Homo sapiens) (Q15418 whole entry): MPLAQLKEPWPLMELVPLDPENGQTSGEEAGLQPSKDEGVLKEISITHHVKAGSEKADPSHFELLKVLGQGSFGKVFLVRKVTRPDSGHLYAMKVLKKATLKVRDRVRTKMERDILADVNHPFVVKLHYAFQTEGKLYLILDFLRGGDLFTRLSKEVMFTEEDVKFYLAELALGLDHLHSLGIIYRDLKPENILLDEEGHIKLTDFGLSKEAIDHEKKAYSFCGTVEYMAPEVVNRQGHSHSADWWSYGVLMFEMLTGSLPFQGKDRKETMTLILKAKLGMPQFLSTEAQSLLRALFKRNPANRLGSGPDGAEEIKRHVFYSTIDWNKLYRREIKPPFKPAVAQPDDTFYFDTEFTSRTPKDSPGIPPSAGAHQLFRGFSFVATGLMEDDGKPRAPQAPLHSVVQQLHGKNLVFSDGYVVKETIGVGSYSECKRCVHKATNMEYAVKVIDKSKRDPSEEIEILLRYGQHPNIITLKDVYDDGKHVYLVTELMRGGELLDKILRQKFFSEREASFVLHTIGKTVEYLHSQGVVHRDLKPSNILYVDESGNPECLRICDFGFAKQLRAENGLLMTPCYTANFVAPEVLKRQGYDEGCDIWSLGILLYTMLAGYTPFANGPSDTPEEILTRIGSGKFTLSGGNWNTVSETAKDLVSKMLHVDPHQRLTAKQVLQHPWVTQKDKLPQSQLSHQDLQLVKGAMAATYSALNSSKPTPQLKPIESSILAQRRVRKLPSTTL
The target in assay [9] is Serine/threonine-protein kinase 10 (Homo sapiens) (UniProt O94804). In words: Inhibition of human LOK assessed as residual activity at 1 uM relative to control.
Sequence of Serine/threonine-protein kinase 10 (Homo sapiens) (O94804 whole entry, looked up): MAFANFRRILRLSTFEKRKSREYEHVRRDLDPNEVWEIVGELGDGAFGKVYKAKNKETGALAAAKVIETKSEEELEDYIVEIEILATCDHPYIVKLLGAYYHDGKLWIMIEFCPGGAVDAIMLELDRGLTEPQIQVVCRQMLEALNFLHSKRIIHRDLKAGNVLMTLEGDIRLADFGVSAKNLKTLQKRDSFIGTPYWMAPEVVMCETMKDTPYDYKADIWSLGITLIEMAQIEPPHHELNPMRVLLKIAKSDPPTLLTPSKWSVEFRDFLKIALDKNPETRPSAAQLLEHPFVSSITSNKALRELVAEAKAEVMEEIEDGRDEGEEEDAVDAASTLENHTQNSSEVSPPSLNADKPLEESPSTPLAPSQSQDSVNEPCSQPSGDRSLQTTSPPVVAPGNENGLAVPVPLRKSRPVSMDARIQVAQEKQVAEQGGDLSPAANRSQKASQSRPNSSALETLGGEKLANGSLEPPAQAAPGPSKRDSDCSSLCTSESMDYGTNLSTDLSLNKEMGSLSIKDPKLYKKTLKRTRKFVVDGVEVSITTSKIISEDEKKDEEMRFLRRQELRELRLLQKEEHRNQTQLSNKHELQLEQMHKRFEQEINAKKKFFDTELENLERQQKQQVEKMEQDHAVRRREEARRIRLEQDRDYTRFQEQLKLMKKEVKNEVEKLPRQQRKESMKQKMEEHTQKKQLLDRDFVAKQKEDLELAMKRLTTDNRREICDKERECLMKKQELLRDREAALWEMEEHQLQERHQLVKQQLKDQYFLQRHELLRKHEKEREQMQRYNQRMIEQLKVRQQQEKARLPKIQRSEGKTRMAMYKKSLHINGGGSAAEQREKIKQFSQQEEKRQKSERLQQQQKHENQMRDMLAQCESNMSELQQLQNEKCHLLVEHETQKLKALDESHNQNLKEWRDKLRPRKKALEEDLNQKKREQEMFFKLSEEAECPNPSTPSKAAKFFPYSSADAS
Assay [10] has as its system Proto-oncogene tyrosine-protein kinase receptor Ret (Homo sapiens), P07949 [V804L]. In words: Inhibition of human RET V804L mutant assessed as residual activity at 1 uM relative to control.
Assay [11] addresses Phosphatidylinositol 4,5-bisphosphate 3-kinase catalytic subunit gamma isoform (Homo sapiens) (UniProt P48736). In words: Inhibition of human PI3K p120gamma assessed as residual activity at 1 uM relative to control.

Sequence of Phosphatidylinositol 4,5-bisphosphate 3-kinase catalytic subunit gamma isoform (Homo sapiens) (P48736 whole entry, looked up, canonical isoform): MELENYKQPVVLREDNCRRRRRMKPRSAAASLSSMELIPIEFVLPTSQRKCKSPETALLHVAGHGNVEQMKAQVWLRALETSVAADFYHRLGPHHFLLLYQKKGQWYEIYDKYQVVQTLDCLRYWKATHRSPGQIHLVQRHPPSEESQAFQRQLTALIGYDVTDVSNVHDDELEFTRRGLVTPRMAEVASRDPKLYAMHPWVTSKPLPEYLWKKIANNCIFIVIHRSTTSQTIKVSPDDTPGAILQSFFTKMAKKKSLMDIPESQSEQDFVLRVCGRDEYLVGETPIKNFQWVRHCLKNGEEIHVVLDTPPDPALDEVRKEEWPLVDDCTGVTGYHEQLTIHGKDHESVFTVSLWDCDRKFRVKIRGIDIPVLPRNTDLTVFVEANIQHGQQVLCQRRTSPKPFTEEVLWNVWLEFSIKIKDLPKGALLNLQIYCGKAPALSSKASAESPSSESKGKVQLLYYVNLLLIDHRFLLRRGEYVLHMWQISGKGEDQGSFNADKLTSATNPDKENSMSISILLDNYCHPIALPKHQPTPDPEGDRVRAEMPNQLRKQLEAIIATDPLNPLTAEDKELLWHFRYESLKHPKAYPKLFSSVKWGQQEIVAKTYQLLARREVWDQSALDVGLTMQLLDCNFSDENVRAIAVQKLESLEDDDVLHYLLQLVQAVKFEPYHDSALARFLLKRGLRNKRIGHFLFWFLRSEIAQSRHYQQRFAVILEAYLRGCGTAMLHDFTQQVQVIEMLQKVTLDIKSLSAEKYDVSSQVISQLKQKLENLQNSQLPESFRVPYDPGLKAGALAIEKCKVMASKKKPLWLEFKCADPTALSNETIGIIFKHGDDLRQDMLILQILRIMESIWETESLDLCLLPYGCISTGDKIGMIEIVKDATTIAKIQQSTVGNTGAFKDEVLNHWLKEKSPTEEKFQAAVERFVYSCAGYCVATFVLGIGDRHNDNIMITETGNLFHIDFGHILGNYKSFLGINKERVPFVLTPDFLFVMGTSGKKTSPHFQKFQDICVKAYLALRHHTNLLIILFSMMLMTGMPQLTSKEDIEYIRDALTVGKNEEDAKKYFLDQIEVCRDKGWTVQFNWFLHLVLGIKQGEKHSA
Sequence of Serine/threonine-protein kinase pim-2 (Homo sapiens) (Q9P1W9 whole entry, looked up): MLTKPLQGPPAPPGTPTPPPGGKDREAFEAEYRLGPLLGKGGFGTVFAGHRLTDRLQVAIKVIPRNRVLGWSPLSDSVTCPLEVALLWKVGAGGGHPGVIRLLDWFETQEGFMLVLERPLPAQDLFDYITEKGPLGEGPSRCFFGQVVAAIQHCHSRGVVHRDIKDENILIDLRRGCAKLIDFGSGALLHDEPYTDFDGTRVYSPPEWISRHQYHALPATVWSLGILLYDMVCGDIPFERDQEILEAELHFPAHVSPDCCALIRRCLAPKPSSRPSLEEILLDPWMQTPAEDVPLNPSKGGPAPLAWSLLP

Regarding `COc1ccc(-c2nc3cc(-c4csc(C(=O)NCC(C)(C)C)c4)cnc3[nH]2)cc1`, the Activity is 88% in assay [1]; 67% in [2]; 74% in assay [3]; 91% in [4]; 93% in [5]; 8% in assay [6]. The Activity was found to be 100% in assay [7]; 73% in assay [8]; 102% in assay [9]; 13% in assay [10]; 85% in assay [11].
As for `COc1ccc(-c2nc3cc(-c4csc(C(=O)NCCC(C)C)c4)cnc3[nH]2)cc1`, the Activity was 92% in assay [1]; 54% in assay [2]; 59% in [3]; 89% in [4]; 94% in assay [5]; 7% in [6]. Besides, the Activity was 101% in assay [7]; 76% in assay [8]; 97% in assay [9]; 5% in [10]; 90% in assay [11].
`COc1ccc(-c2nc3cc(-c4csc(C(=O)NCC(C)C)c4)cnc3[nH]2)cc1`: the Activity in assay [1] was found to be 94%; in [2], 52%; in [3] it was 91%; in [4], 101%; in [5], 90%; in [6] it was 4%. The Activity is 101% in [7]; 63% in assay [8]; 100% in assay [9]; 8% in assay [10]; 86% in [11].

These data come from ChEMBL document CHEMBL3124838, “Discovery of 6-aryl-azabenzimidazoles that inhibit the TBK1/IKK-ε kinases” (Bioorg Med Chem Lett, 2014).
